Data: patent US20090263410A1, “USE OF TGF-B1 INHIBITOR PEPTIDES IN THE PREPARATION OF AN IMMUNE RESPONSE MODULATING AGENT” (Proyecto De Biomedicina Cima, S.L., priority 2005, published 2009)

How the values were obtained:
CT26 cells [1] = experiment: Protection against growth of CT26 cells after immunization with AH1 + LVQ mixtures; format: in vivo, BALB/c mice; conditions: mice protected/total; immunization mixtures in Freund's incomplete adjuvant; 500,000 CT26 cells subcutaneous
Text: […] is a peptide which is presented by the MHC-II on the surface of the presenting cell, and a DTc is a peptide which is presented by MHC-I on the surface of the presenting cell and in tumour cells. It is known that the joint immunization of a DTc (AH1 peptide) and a DTh (LVQ peptide), both peptides coming from the gp70 protein of the tumour antigen expressed by CT26 cells, was capable of protecting against the subcutaneous growth of 500,000 CT26 tumour cells. Since TGF-β1 is important in the immune response induction process, we wanted to study the effect of peptide p144 on the induction of the response responsible for protection against the growth of CT26 cells. As is indicated in Table 1, three groups of BALB/c mice were immunized with the following mixtures of Freund's incomplete adjuvant: (i) with AH1 LVQ, (ii) with AH1+LVQ+p144 and (iii) just with Freund's incomplete adjuvant.

CT26 cells [2] = experiment: Pulmonary metastasis model (intravenous CT26), survival; format: in vivo, BALB/c mice; conditions: 5×10^5 CT26 i.v. on day 10; 50 μg AH1 in FIA s.c. day 0; p144 50 μg i.p. alternate days, days 4-20 or 10-20
Text: It is speculated that the neutralization of TGF-β1, once the immune response has been induced, could have a beneficial effect on the evolution thereof.
It is known from previous experience that immunization with only DTc AH1 produced a certain delay in the appearance of tumours after the intravenous administration of CT26 cells. For this reason, in a survival experiment, the inclusion of p144 was compared at different times after immunization with AH1. Thus, the animals in group (i) just received the administration of CT26 cells, the animal groups (ii), (iii) and (iv) were immunized on day 0 by subcutaneous route with 50 μg of AH1 in FIA (Freund's incomplete adjuvant) and they were then administered 5×10^5 CT26 cells by intravenous route on day 10. Group (iii) further received 50 μg of p144 in 500 μl of PS (physiological serum) by intraperitoneal route on alternate days between days 4 and 20. Group (iv), as with group (iii), received 50 μg of p144 in 500 μl of PS by intraperitoneal route on alternate days, only between days 10 and 20.

[3] = tested on: dendritic cells derived from splenocytes; experiment: Surface markers of splenocyte-derived dendritic cells by flow cytometry; format: cell-based, C57 mouse; conditions: incubation 72 hours; p144 50 μg/ml or anti (TGF-β) antibody 20 μg/ml; medium with GM-CSF+TGF-β1
Procedure: After sacrificing an 8-week old male C57 mouse, its spleen was extracted in sterile conditions and it was homogenised on a plate with clean medium to produce a cell suspension. The cells were centrifuged for 5 minutes at 1000 rpm and the cell sediment obtained was resuspended with 1 ml/spleen of ACK lysis solution (0.15M NH4Cl, 1 mM KHCO3, […] sodium salt-EDTA solution, pH 7.2-7.4) for 1 minute at 37° C. Next, the cells were centrifuged and washed with 10 ml of cold R10 medium (RPMI-1640, 10% FBS, Glutamine, 2×10^−5 M 2-Mercaptoethanol) to centrifuge and wash once more. Finally, the cells were resuspended in 50 ml of R10 medium. 6-well plates were prepared (Costar #3471) treating them with 1 ml per well of R10 medium to differentiate splenocytes from dendritic cells [R10+10 ng/ml of mouse GM-CSF (Peprotec, EC LTD, London, UK)+1 ng/ml of TGF-β1 (RD Systems, Minneapolis, USA)], for 15 minutes at room temperature. Next, 2 ml of the cell suspension were added to each well and they were incubated at 37° C. and 5% CO2. During the first weeks, the medium was changed twice, by the elimination of 1 ml of supernatant and the addition of 1 ml of fresh medium (R10+GM-CSF+TGF-β1) for dendritic cells. After these two weeks, the medium was separated. 1 ml per well of dissociation medium in enzyme-free BPS (GIBCO BRL) was added to the plates, and the medium was incubated at 37° C., then it was removed and 2 ml of tepid medium (R10+GM-CSF+TGF-β1) was added. Next, the cells were lifted with slow pipetting and the lifted cells were centrifuged at 1000 rpm and they were resuspended in fresh medium (R10+GM-CSF+TGF-β1). The cells thus obtained can be reamplified by seeding on a plate, repeating the initial process. […]

p144: peptide inhibiting TGF-β1 whose amino acid sequence corresponds to SEQ ID NO: 1 (TSLDASIIWAMMQN; Synthetic Construct from human TGB-Beta1 type III receptor.Domain730-743)
Protection level against the growth of CT26 cells (CT26 cells [1]): negative effect on protection | survival / mortality (CT26 cells [2]): reinforces the survival effect | CD11c expression (fluorescence level) [3]: negative effect | CD80 expression (fluorescence level) [3]: negative effect | MHC I expression (fluorescence level) [3]: negative effect
